Source: the supplement of paper PMC13380429

Key:
Settings in all cases: 72 h
HepG2 [1] = experiment: relative viability EC50 (midpoint between 100% and the lowest measured viability); higher = less toxic
Caco-2 [2] = experiment: as above
Vero E6 [3] = experiment: as above
U2OS [4] = experiment: as above
Calu-3 [5] = experiment: as above
HepG2 [6] = experiment: drug sensitivity score (DSS) for viability; higher = more toxic; extreme values may be limits of the assay
Caco-2 [7] = experiment: as above
Vero E6 [8] = experiment: as above
U2OS [9] = experiment: as above
Calu-3 [10] = experiment: as above
HepG2 [11] = experiment: cell viability relative to DMSO; higher = less toxic
Caco-2 [12] = experiment: as above
Vero E6 [13] = experiment: as above
U2OS [14] = experiment: as above
Calu-3 [15] = experiment: as above

Row | SMILES | relative viability EC50 (HepG2 [1]) | relative viability EC50 (Caco-2 [2]) | relative viability EC50 (Vero E6 [3]) | relative viability EC50 (U2OS [4]) | relative viability EC50 (Calu-3 [5]) | drug sensitivity score (HepG2 [6]) | drug sensitivity score (Caco-2 [7]) | drug sensitivity score (Vero E6 [8]) | drug sensitivity score (U2OS [9]) | drug sensitivity score (Calu-3 [10]) | cell viability (HepG2 [11]; 1 nM) | cell viability (HepG2 [11]; 10 nM) | cell viability (HepG2 [11]; 100 nM) | cell viability (HepG2 [11]; 1000 nM) | cell viability (HepG2 [11]; 10000 nM) | cell viability (Caco-2 [12]; 1 nM) | cell viability (Caco-2 [12]; 10 nM) | cell viability (Caco-2 [12]; 100 nM) | cell viability (Caco-2 [12]; 1000 nM) | cell viability (Caco-2 [12]; 10000 nM) | cell viability (Vero E6 [13]; 1 nM) | cell viability (Vero E6 [13]; 10 nM) | cell viability (Vero E6 [13]; 100 nM) | cell viability (Vero E6 [13]; 1000 nM) | cell viability (Vero E6 [13]; 10000 nM) | cell viability (U2OS [14]; 1 nM) | cell viability (U2OS [14]; 10 nM) | cell viability (U2OS [14]; 100 nM) | cell viability (U2OS [14]; 1000 nM) | cell viability (U2OS [14]; 10000 nM) | cell viability (Calu-3 [15]; 1 nM) | cell viability (Calu-3 [15]; 10 nM) | cell viability (Calu-3 [15]; 100 nM) | cell viability (Calu-3 [15]; 1000 nM) | cell viability (Calu-3 [15]; 10000 nM)
1 | O=C(O)COc1cccc(-c2ocnc2-c2nc(-c3ccccc3)c(-c3ccccc3)o2)c1 | > 10 µM | > 10 µM | > 10 µM | > 10 µM | > 10 µM | 0 | 0.7 | 0 | 0 | 0 | 105% | 102% | 93.6% | 95% | 105% | 109% | 101% | 95.5% | 94.4% | 81.8% | 99% | 104% | 102% | 104% | 101% | 102% | 97.7% | 97.5% | 102% | 101% | 92.9% | 95.8% | 95% | 100% | 105%
2 | C[C@]12C/C(=C/O)C(=O)C[C@@H]1CC[C@@H]1[C@@H]2CC[C@@]2(C)[C@H]1CC[C@]2(C)O [Oxymetholone] | > 10 µM | > 10 µM | > 10 µM | > 10 µM | > 10 µM | 0 | 0 | 0 | 0 | 0 | 101% | 108% | 96% | 111% | 96% | 100% | 87.8% | 102% | 90.4% | 96.1% | 97.4% | 101% | 106% | 104% | 96.3% | 102% | 97.8% | 99.6% | 97% | 98.1% | 117% | 97.6% | 97.3% | 102% | 101%
3 | CCN(CCNC(=O)Nc1ccccc1Br)c1cccc(C)c1 | > 10 µM | > 10 µM | > 10 µM | > 10 µM | > 10 µM | 0 | 0 | 0 | 0 | 0 | 95.1% | 101% | 90.8% | 99.6% | 96.5% | 92.4% | 102% | 93.1% | 102% | 90.5% | 108% | 114% | 105% | 120% | 97.8% | 98.9% | 103% | 97% | 99.5% | 93.5% | 93.6% | 96.3% | 93.7% | 91.3% | 101%
4 | O=c1c2ccccc2oc2ccccc12 [xanthone] | > 10 µM | > 10 µM | > 10 µM | > 10 µM | > 10 µM | 0 | 0 | 0 | 0 | 0 | 108% | 93.8% | 93.5% | 110% | 93.6% | 102% | 98.6% | 101% | 95.1% | 106% | 104% | 100% | 101% | 99.1% | 95.9% | 101% | 94.9% | 99% | 97.9% | 100% | 95.3% | 96.5% | 103% | 104% | 104%
5 | CN(C)C(=O)Oc1cc(OC(=O)N(C)C)cc(C(O)CNC(C)(C)C)c1 (stereo not given) [bambuterol] | > 10 µM | > 10 µM | > 10 µM | > 10 µM | > 10 µM | 0 | 0 | 0 | 0 | 0 | 96.1% | 97.2% | 99.1% | 96.9% | 95.6% | 97.7% | 94.5% | 89.6% | 103% | 104% | 99.8% | 97.9% | 93.1% | 90.3% | 101% | 96.4% | 93.5% | 95.5% | 101% | 104% | 95.8% | 98.6% | 99.2% | 89.4% | 117%
6 | C1CCC2(CC1)CCNCC2 [4,4-pentamethylenepiperidine] | > 10 µM | > 10 µM | > 10 µM | > 10 µM | > 10 µM | 0 | 0 | 0 | 0 | 0 | 104% | 90.7% | 96% | 102% | 96.7% | 99.9% | 93% | 97.4% | 91.2% | 102% | 102% | 101% | 100% | 104% | 98.7% | 97.2% | 95.3% | 95.2% | 94.9% | 91.7% | 99.2% | 96.3% | 109% | 95.1% | 101%
7 | N=C(N)NCCC[C@@H](N)C(=O)N[C@@H](CCCNC(=N)N)C(=O)N1CCC[C@H]1C(=O)N1C[C@H](O)C[C@H]1C(=O)NCC(=O)N[C@@H](Cc1cccs1)C(=O)N[C@@H](CO)C(=O)N1Cc2ccccc2C[C@@H]1C(=O)N1[C@H](C(=O)N[C@@H](CCCNC(=N)N)C(=O)O)C[C@@H]2CCCC[C@@H]21 [icatibant-acetate] | > 10 µM | > 10 µM | > 10 µM | > 10 µM | > 10 µM | 0 | 0 | 0 | 0 | 0 | 91% | 93.3% | 84.7% | 102% | 102% | 96% | 100% | 90% | 91.4% | 103% | 99% | 97.9% | 101% | 101% | 101% | 102% | 98.8% | 103% | 98.1% | 101% | 107% | 92.8% | 98% | 98.6% | 104%
